How the values were obtained:
[1] = Cytotoxicity against human HuH7 cells by CMV-luciferase reporter gene assay; format: cell-based, Huh-7
[2] = Apparent permeability across human Caco2 cells; format: ADME, cell-based; conditions: Caco-2
Rattus norvegicus [3] = test: Tmax in Sprague-Dawley rat assessed as 4'-azido-2'-deoxy-2'-methylcytidine level at 20 umol/kg, po; format: ADME, organism-based; conditions: in vivo
Rattus norvegicus [4] = test: Cmax in Sprague-Dawley rat assessed as 4'-azido-2'-deoxy-2'-methylcytidine level at 20 umol/kg, po; format: ADME, organism-based; parameters: dose 20 umol/kg, route oral; conditions: in vivo
Rattus norvegicus [5] = test: AUC (0 to infinity) in Sprague-Dawley rat assessed as 4'-azido-2'-deoxy-2'-methylcytidine level at 20 umol/kg, po; format: ADME, organism-based, Plasma; parameters: dose 20 umol/kg, route oral, time infinity; conditions: in vivo
Hepatitis C virus = test: Antiviral activity against Hepatitis C virus infected in human HuH7-Rep cells assessed as inhibition of viral replication by luciferase reporter gene assay; format: functional, organism-based, Hepacivirus hominis; conditions: Huh-7
[6] = Cytotoxicity against human MT4 cells by LTR-luciferase reporter gene assay; format: cell-based
Rattus norvegicus [7] = test: Apparent oral clearance in Sprague-Dawley rat assessed as 4'-azido-2'-deoxy-2'-methylcytidine level at 20 umol/kg, po; format: ADME, organism-based; conditions: in vivo
Rattus norvegicus [8] = test: Oral bioavailability in Sprague-Dawley rat assessed as 4'-azido-2'-deoxy-2'-methylcytidine level at 20 umol/kg; format: ADME, organism-based; conditions: in vivo
[9] = Intrinsic clearance in human liver microsomes; format: ADME, Microsome; conditions: read-out: CLH
Rattus norvegicus [10] = test: AUCt in Sprague-Dawley rat assessed as 4'-azido-2'-deoxy-2'-methylcytidine level at 20 umol/kg, po; format: ADME, organism-based, Plasma; conditions: in vivo
[11] = Cmax in Sprague-Dawley rat at 20 umol/kg, po; format: ADME, organism-based; parameters: dose 20 umol/kg, route oral; conditions: in vivo
[12] = AUCt in Sprague-Dawley rat at 20 umol/kg, po; format: ADME, organism-based; conditions: plasma
[13] = Intrinsic clearance in rat liver microsomes; format: ADME, Microsome; conditions: read-out: CLH
[14] = Apparent oral clearance in Sprague-Dawley rat at 20 umol/kg, po; format: ADME, organism-based; conditions: in vivo
[15] = Oral bioavailability in Sprague-Dawley rat at 20 umol/kg; format: ADME, organism-based; conditions: in vivo
[16] = AUC (0 to infinity) in Sprague-Dawley rat at 5 umol/kg, iv; format: ADME, organism-based; parameters: dose 5 umol/kg, route intravenous, time infinity; conditions: plasma
[17] = AUC (0 to infinity) in Sprague-Dawley rat at 20 umol/kg, po; format: ADME, organism-based; parameters: dose 20 umol/kg, time infinity, route oral; conditions: plasma
[18] = Tmax in Sprague-Dawley rat at 20 umol/kg, po; format: ADME, organism-based; conditions: in vivo
[19] = AUCt in Sprague-Dawley rat at 5 umol/kg, iv; format: ADME, organism-based; conditions: plasma

SMILES | CC50 [1] [µM] | Tmax (Rattus norvegicus [3]) [h] | Cmax (Rattus norvegicus [4]) [nM] | AUC (Rattus norvegicus [5]) [µM·h] | EC50 (Hepatitis C virus) [µM] | CC50 [6] [µM] | CL/F (Rattus norvegicus [7]) [mL/min/kg] | F (Rattus norvegicus [8]) [%] | AUCt (Rattus norvegicus [10]) [µM·h] | other results
CC(C)C(=O)OC[C@@]1(N=[N+]=[N-])O[C@@H](n2ccc(N)nc2=O)[C@H](C)[C@@H]1OC(=O)C(C)C | > 100 | 1 | 4650 | 12.9 | 6.6 | > 50 | 25.8 | 65 | 12.7 | Papp [2]: 7.7 ×10⁻⁶ cm/s; microsomal CLint [9]: > 300 µL/min/mg
CC(C)[C@H](N)C(=O)O[C@H]1[C@@H](C)[C@H](n2ccc(N)nc2=O)O[C@@]1(CO)N=[N+]=[N-].O=C(O)C(F)(F)F | > 100 | 1 | 1140 | 4.06 | 0.72 | – | 82.2 | 20 | 3.66 | –
CC(C)[C@H](N)C(=O)OC[C@@]1(N=[N+]=[N-])O[C@@H](n2ccc(N)nc2=O)[C@H](C)[C@@H]1O.O=C(O)C(F)(F)F | > 100 | 1 | 500 | 1.68 | 0.79 | – | 200 | 8 | 1.56 | –
C[C@H]1[C@H](n2ccc(=O)[nH]c2=O)O[C@@](COP(=O)(N[C@@H](C)C(=O)OCc2ccccc2)Oc2cccc3ccccc23)(N=[N+]=[N-])[C@H]1O (stereo partly drawn) | > 100 | – | – | – | 6.2 | 41 | – | – | – | –
CC(C)[C@H](N)C(=O)OC[C@@]1(N=[N+]=[N-])O[C@@H](n2ccc(N)nc2=O)[C@H](C)[C@@H]1OC(=O)[C@@H](N)C(C)C.O=C(O)C(F)(F)F | > 100 | 1 | 290 | 1.35 | 1.9 | – | 247 | 7 | 1.22 | –
C[C@H]1[C@H](n2ccc(N)nc2=O)O[C@@](COP(=O)(N[C@@H](C)C(=O)OCc2ccccc2)Oc2cccc3ccccc23)(N=[N+]=[N-])[C@H]1O (stereo partly drawn) | > 100 | – | – | – | 3 | > 32 | – | – | – | –
C[C@H]1[C@H](n2ccc(=O)[nH]c2=O)O[C@@](CO)(N=[N+]=[N-])[C@H]1O | > 100 | – | – | – | – | > 100 | – | – | – | IC50 (Hepatitis C virus): > 50 µM
C[C@H]1[C@H](n2ccc(N)nc2=O)O[C@@](CO)(N=[N+]=[N-])[C@H]1O | > 98 | – | – | – | 1.2 | > 98 | – | – | – | Papp [2]: 1.7 ×10⁻⁶ cm/s; Cmax [11]: 610 nM; AUC(0-t) [12]: 2.66 µM·h; microsomal CLint [13]: < 6 µL/min/mg; CL/F [14]: 119 mL/min/kg; bioavailability [15]: 14%; AUC(0-inf) [16]: 4.98 µM·h; AUC(0-inf) [17]: 2.87 µM·h; Tmax [18]: 2 h; microsomal CLint [9]: < 6 µL/min/mg; AUC(0-t) [19]: 4.97 µM·h
